# Reference: ChEMBL document CHEMBL4613209, “Quinolone hybrids and their anti-cancer activities: An overview” (Eur J Med Chem, 2019)
# System: MGC-803
# Test: Cytotoxicity against human MGC803 cells assessed as reduction in cell viability
# Type: functional, cell-based
row,SMILES,IC50 [nM]
1,C[C@H]1COc2c(N3CCN(C)CC3)c(F)cc3c(=O)c(-c4nnc(NC(=O)CCCCCCCC(=O)NO)s4)cn1c23,19 to 127
2,C[C@H]1COc2c(N3CCN(C)CC3)c(F)cc3c(=O)c(-c4nnc(NC(=O)CCCCC(=O)Nc5ccccc5N)s4)cn1c23,46 to 203
3,C[C@H]1COc2c(N3CCN(C)CC3)c(F)cc3c(=O)c(-c4nnc(NC(=O)CCCCCCCCC(=O)Nc5ccccc5N)s4)cn1c23,46 to 203
4,C[C@H]1COc2c(N3CCN(C)CC3)c(F)cc3c(=O)c(-c4nnc(NC(=O)CCCCCCCCC(=O)O)s4)cn1c23,1100 to 14300
5,C[C@H]1COc2c(N3CCN(C)CC3)c(F)cc3c(=O)c(-c4nnc(NC(=O)CCCCCCCC(=O)O)s4)cn1c23,1100 to 14300
6,C[C@H]1COc2c(N3CCN(C)CC3)c(F)cc3c(=O)c(-c4nnc(NC(=O)CCCCCCCCC(=O)NO)s4)cn1c23,19 to 127
7,C[C@H]1COc2c(N3CCN(C)CC3)c(F)cc3c(=O)c(-c4nnc(NC(=O)CCCC(=O)O)s4)cn1c23,1100 to 14300
8,C[C@H]1COc2c(N3CCN(C)CC3)c(F)cc3c(=O)c(-c4nnc(NC(=O)CCCCCC(=O)Nc5ccccc5N)s4)cn1c23,46 to 203
9,C[C@H]1COc2c(N3CCN(C)CC3)c(F)cc3c(=O)c(-c4nnc(NC(=O)CCCC(=O)Nc5ccccc5N)s4)cn1c23,46 to 203

# System: GES1
# Test: Cytotoxicity against human GES-1 cells assessed as reduction in cell viability
# Type: cell-based
row,SMILES,IC50 [nM]
1,C[C@H]1COc2c(N3CCN(C)CC3)c(F)cc3c(=O)c(-c4nnc(NC(=O)CCCCCCCC(=O)NO)s4)cn1c23,> 81500
2,C[C@H]1COc2c(N3CCN(C)CC3)c(F)cc3c(=O)c(-c4nnc(NC(=O)CCCCC(=O)Nc5ccccc5N)s4)cn1c23,> 81500
3,C[C@H]1COc2c(N3CCN(C)CC3)c(F)cc3c(=O)c(-c4nnc(NC(=O)CCCCCCCCC(=O)Nc5ccccc5N)s4)cn1c23,> 81500
4,C[C@H]1COc2c(N3CCN(C)CC3)c(F)cc3c(=O)c(-c4nnc(NC(=O)CCCCCCCCC(=O)O)s4)cn1c23,> 81500
5,C[C@H]1COc2c(N3CCN(C)CC3)c(F)cc3c(=O)c(-c4nnc(NC(=O)CCCCCCCC(=O)O)s4)cn1c23,> 81500
6,C[C@H]1COc2c(N3CCN(C)CC3)c(F)cc3c(=O)c(-c4nnc(NC(=O)CCCCCCCCC(=O)NO)s4)cn1c23,> 81500
7,C[C@H]1COc2c(N3CCN(C)CC3)c(F)cc3c(=O)c(-c4nnc(NC(=O)CCCC(=O)O)s4)cn1c23,> 81500
8,C[C@H]1COc2c(N3CCN(C)CC3)c(F)cc3c(=O)c(-c4nnc(NC(=O)CCCCCC(=O)Nc5ccccc5N)s4)cn1c23,> 81500
9,C[C@H]1COc2c(N3CCN(C)CC3)c(F)cc3c(=O)c(-c4nnc(NC(=O)CCCC(=O)Nc5ccccc5N)s4)cn1c23,> 81500

# System: EJ
# Test: Cytotoxicity against human EJ cells assessed as reduction in cell viability by MTT assay
# Type: functional, cell-based
row,SMILES,IC50 [nM]
1,CO/N=C(/CN1CCN(c2cc3c(cc2F)c(=O)c(C(=O)O)cn3C2CC2)CC1)c1ccc(Cl)s1,≤ 20000

# System: A-431
# Test: Cytotoxicity against human A431 cells assessed as reduction in cell viability by MTT assay
# Type: functional, cell-based
row,SMILES,IC50 [nM]
1,CO/N=C(/CN1CCN(c2cc3c(cc2F)c(=O)c(C(=O)O)cn3C2CC2)CC1)c1ccc(Cl)s1,≤ 20000

# System: NCI-H460
# Test: Cytotoxicity against human NCI-H460 cells assessed as reduction in cell viability
# Type: functional, cell-based
row,SMILES,IC50 [nM]
1,C[C@H]1COc2c(N3CCN(C)CC3)c(F)cc3c(=O)c(-c4nnc(NC(=O)CCCCCCCC(=O)NO)s4)cn1c23,19 to 127
2,C[C@H]1COc2c(N3CCN(C)CC3)c(F)cc3c(=O)c(-c4nnc(NC(=O)CCCCC(=O)Nc5ccccc5N)s4)cn1c23,46 to 203
3,C[C@H]1COc2c(N3CCN(C)CC3)c(F)cc3c(=O)c(-c4nnc(NC(=O)CCCCCCCCC(=O)Nc5ccccc5N)s4)cn1c23,46 to 203
4,C[C@H]1COc2c(N3CCN(C)CC3)c(F)cc3c(=O)c(-c4nnc(NC(=O)CCCCCCCCC(=O)O)s4)cn1c23,1100 to 14300
5,C[C@H]1COc2c(N3CCN(C)CC3)c(F)cc3c(=O)c(-c4nnc(NC(=O)CCCCCCCC(=O)O)s4)cn1c23,1100 to 14300
6,C[C@H]1COc2c(N3CCN(C)CC3)c(F)cc3c(=O)c(-c4nnc(NC(=O)CCCCCCCCC(=O)NO)s4)cn1c23,19 to 127
7,C[C@H]1COc2c(N3CCN(C)CC3)c(F)cc3c(=O)c(-c4nnc(NC(=O)CCCC(=O)O)s4)cn1c23,1100 to 14300
8,C[C@H]1COc2c(N3CCN(C)CC3)c(F)cc3c(=O)c(-c4nnc(NC(=O)CCCCCC(=O)Nc5ccccc5N)s4)cn1c23,46 to 203
9,C[C@H]1COc2c(N3CCN(C)CC3)c(F)cc3c(=O)c(-c4nnc(NC(=O)CCCC(=O)Nc5ccccc5N)s4)cn1c23,46 to 203

# System: SK-MEL3
# Test: Cytotoxicity against human SK-MEL-3 cells assessed as reduction in cell viability by MTT assay
# Type: functional, cell-based
row,SMILES,IC50 [nM]
1,CO/N=C(/CN1CCN(c2cc3c(cc2F)c(=O)c(C(=O)O)cn3C2CC2)CC1)c1ccc(Cl)s1,≤ 20000

# System: SW-620
# Test: Cytotoxicity against human SW620 cells assessed as reduction in cell viability
# Type: functional, cell-based
row,SMILES,IC50 [nM]
1,C[C@H]1COc2c(N3CCN(C)CC3)c(F)cc3c(=O)c(-c4nnc(NC(=O)CCCCCCCC(=O)NO)s4)cn1c23,19 to 127
2,C[C@H]1COc2c(N3CCN(C)CC3)c(F)cc3c(=O)c(-c4nnc(NC(=O)CCCCC(=O)Nc5ccccc5N)s4)cn1c23,46 to 203
3,C[C@H]1COc2c(N3CCN(C)CC3)c(F)cc3c(=O)c(-c4nnc(NC(=O)CCCCCCCCC(=O)Nc5ccccc5N)s4)cn1c23,46 to 203
4,C[C@H]1COc2c(N3CCN(C)CC3)c(F)cc3c(=O)c(-c4nnc(NC(=O)CCCCCCCCC(=O)O)s4)cn1c23,1100 to 14300
5,C[C@H]1COc2c(N3CCN(C)CC3)c(F)cc3c(=O)c(-c4nnc(NC(=O)CCCCCCCC(=O)O)s4)cn1c23,1100 to 14300
6,C[C@H]1COc2c(N3CCN(C)CC3)c(F)cc3c(=O)c(-c4nnc(NC(=O)CCCCCCCCC(=O)NO)s4)cn1c23,19 to 127
7,C[C@H]1COc2c(N3CCN(C)CC3)c(F)cc3c(=O)c(-c4nnc(NC(=O)CCCC(=O)O)s4)cn1c23,1100 to 14300
8,C[C@H]1COc2c(N3CCN(C)CC3)c(F)cc3c(=O)c(-c4nnc(NC(=O)CCCCCC(=O)Nc5ccccc5N)s4)cn1c23,46 to 203
9,C[C@H]1COc2c(N3CCN(C)CC3)c(F)cc3c(=O)c(-c4nnc(NC(=O)CCCC(=O)Nc5ccccc5N)s4)cn1c23,46 to 203

# System: MCF7
# Test: Cytotoxicity against human MCF7 cells assessed as reduction in cell viability
# Type: functional, cell-based
row,SMILES,IC50 [nM]
1,C[C@H]1COc2c(N3CCN(C)CC3)c(F)cc3c(=O)c(-c4nnc(NC(=O)CCCCCCCC(=O)NO)s4)cn1c23,19 to 127
2,C[C@H]1COc2c(N3CCN(C)CC3)c(F)cc3c(=O)c(-c4nnc(NC(=O)CCCCC(=O)Nc5ccccc5N)s4)cn1c23,46 to 203
3,C[C@H]1COc2c(N3CCN(C)CC3)c(F)cc3c(=O)c(-c4nnc(NC(=O)CCCCCCCCC(=O)Nc5ccccc5N)s4)cn1c23,46 to 203
4,C[C@H]1COc2c(N3CCN(C)CC3)c(F)cc3c(=O)c(-c4nnc(NC(=O)CCCCCCCCC(=O)O)s4)cn1c23,1100 to 14300
5,C[C@H]1COc2c(N3CCN(C)CC3)c(F)cc3c(=O)c(-c4nnc(NC(=O)CCCCCCCC(=O)O)s4)cn1c23,1100 to 14300
6,C[C@H]1COc2c(N3CCN(C)CC3)c(F)cc3c(=O)c(-c4nnc(NC(=O)CCCCCCCCC(=O)NO)s4)cn1c23,19 to 127
7,C[C@H]1COc2c(N3CCN(C)CC3)c(F)cc3c(=O)c(-c4nnc(NC(=O)CCCC(=O)O)s4)cn1c23,1100 to 14300
8,C[C@H]1COc2c(N3CCN(C)CC3)c(F)cc3c(=O)c(-c4nnc(NC(=O)CCCCCC(=O)Nc5ccccc5N)s4)cn1c23,46 to 203
9,C[C@H]1COc2c(N3CCN(C)CC3)c(F)cc3c(=O)c(-c4nnc(NC(=O)CCCC(=O)Nc5ccccc5N)s4)cn1c23,46 to 203

# System: HepG2
# Test: Cytotoxicity against human HepG2 cells assessed as reduction in cell viability
# Type: functional, cell-based
row,SMILES,IC50 [nM]
1,C[C@H]1COc2c(N3CCN(C)CC3)c(F)cc3c(=O)c(-c4nnc(NC(=O)CCCCCCCC(=O)NO)s4)cn1c23,19 to 127
2,C[C@H]1COc2c(N3CCN(C)CC3)c(F)cc3c(=O)c(-c4nnc(NC(=O)CCCCC(=O)Nc5ccccc5N)s4)cn1c23,46 to 203
3,C[C@H]1COc2c(N3CCN(C)CC3)c(F)cc3c(=O)c(-c4nnc(NC(=O)CCCCCCCCC(=O)Nc5ccccc5N)s4)cn1c23,46 to 203
4,C[C@H]1COc2c(N3CCN(C)CC3)c(F)cc3c(=O)c(-c4nnc(NC(=O)CCCCCCCCC(=O)O)s4)cn1c23,1100 to 14300
5,C[C@H]1COc2c(N3CCN(C)CC3)c(F)cc3c(=O)c(-c4nnc(NC(=O)CCCCCCCC(=O)O)s4)cn1c23,1100 to 14300
6,C[C@H]1COc2c(N3CCN(C)CC3)c(F)cc3c(=O)c(-c4nnc(NC(=O)CCCCCCCCC(=O)NO)s4)cn1c23,19 to 127
7,C[C@H]1COc2c(N3CCN(C)CC3)c(F)cc3c(=O)c(-c4nnc(NC(=O)CCCC(=O)O)s4)cn1c23,1100 to 14300
8,C[C@H]1COc2c(N3CCN(C)CC3)c(F)cc3c(=O)c(-c4nnc(NC(=O)CCCCCC(=O)Nc5ccccc5N)s4)cn1c23,46 to 203
9,C[C@H]1COc2c(N3CCN(C)CC3)c(F)cc3c(=O)c(-c4nnc(NC(=O)CCCC(=O)Nc5ccccc5N)s4)cn1c23,46 to 203

# System: SW480
# Test: Cytotoxicity against human SW480 cells assessed as reduction in cell viability by MTT assay
# Type: functional, cell-based
row,SMILES,IC50 [nM]
1,CO/N=C(/CN1CCN(c2cc3c(cc2F)c(=O)c(C(=O)O)cn3C2CC2)CC1)c1ccc(Cl)s1,≤ 20000

# System: MCF7
# Test: Cytotoxicity against human MCF7 cells assessed as reduction in cell viability by MTT assay
# Type: functional, cell-based
row,SMILES,IC50 [nM]
1,CO/N=C(/CN1CCN(c2cc3c(cc2F)c(=O)c(C(=O)O)cn3C2CC2)CC1)c1ccc(Cl)s1,≤ 20000

# System: PC-3
# Test: Cytotoxicity against human PC3 cells assessed as reduction in cell viability
# Type: functional, cell-based
row,SMILES,IC50 [nM]
1,C[C@H]1COc2c(N3CCN(C)CC3)c(F)cc3c(=O)c(-c4nnc(NC(=O)CCCCCCCC(=O)NO)s4)cn1c23,19 to 127
2,C[C@H]1COc2c(N3CCN(C)CC3)c(F)cc3c(=O)c(-c4nnc(NC(=O)CCCCC(=O)Nc5ccccc5N)s4)cn1c23,46 to 203
3,C[C@H]1COc2c(N3CCN(C)CC3)c(F)cc3c(=O)c(-c4nnc(NC(=O)CCCCCCCCC(=O)Nc5ccccc5N)s4)cn1c23,46 to 203
4,C[C@H]1COc2c(N3CCN(C)CC3)c(F)cc3c(=O)c(-c4nnc(NC(=O)CCCCCCCCC(=O)O)s4)cn1c23,1100 to 14300
5,C[C@H]1COc2c(N3CCN(C)CC3)c(F)cc3c(=O)c(-c4nnc(NC(=O)CCCCCCCC(=O)O)s4)cn1c23,1100 to 14300
6,C[C@H]1COc2c(N3CCN(C)CC3)c(F)cc3c(=O)c(-c4nnc(NC(=O)CCCCCCCCC(=O)NO)s4)cn1c23,19 to 127
7,C[C@H]1COc2c(N3CCN(C)CC3)c(F)cc3c(=O)c(-c4nnc(NC(=O)CCCC(=O)O)s4)cn1c23,1100 to 14300
8,C[C@H]1COc2c(N3CCN(C)CC3)c(F)cc3c(=O)c(-c4nnc(NC(=O)CCCCCC(=O)Nc5ccccc5N)s4)cn1c23,46 to 203
9,C[C@H]1COc2c(N3CCN(C)CC3)c(F)cc3c(=O)c(-c4nnc(NC(=O)CCCC(=O)Nc5ccccc5N)s4)cn1c23,46 to 203
